Assays:
[1] = Metabolic stability in pooled human liver microsomes assessed as half-life at 1 uM preincubated with compound followed by NADPH addition and measured upto 45 mins by LC-MS/MS analysis; assay type: ADME, Microsome
[2] = Metabolic stability in pooled human liver microsomes assessed as intrinsic clearance at 1 uM preincubated with compound followed by NADPH addition and measured upto 45 mins by LC-MS/MS analysis; assay type: ADME, Microsome; details: read-out: CLH

SMILES | half-life at 1 µM [1] | microsomal CLint at 1 µM [2]
CCN(CC)C(=O)[C@@H]1C=C2c3cccc4[nH]c(Br)c(c34)C[C@H]2N(C)C1 | 24.6 min | 56.3 µL/min/mg
[2H]c1[nH]c2cccc3c2c1C[C@@H]1C3=C[C@@H](C(=O)N(CC)CC)CN1C | 77.7 min | 17.8 µL/min/mg
[2H]c1[nH]c2c([2H])c([2H])c([2H])c3c2c1C[C@@H]1C3=C[C@@H](C(=O)N(CC)CC)CN1C | 82.8 min | 16.7 µL/min/mg
[2H]C([2H])([2H])N1C[C@H](C(=O)N(CC)CC)C=C2c3cccc4[nH]c(Br)c(c34)C[C@H]21 | 28.1 min | 49.4 µL/min/mg
[2H]C([2H])([2H])C([2H])([2H])N(C(=O)[C@@H]1C=C2c3cccc4[nH]c(Br)c(c34)C[C@H]2N(C)C1)C([2H])([2H])C([2H])([2H])[2H] | 31.1 min | 44.6 µL/min/mg
[2H]C([2H])([2H])C([2H])([2H])N(C(=O)[C@@H]1C=C2c3cccc4[nH]cc(c34)C[C@H]2N(C)C1)C([2H])([2H])C([2H])([2H])[2H] | 80.8 min | 17.2 µL/min/mg
[2H]C([2H])([2H])N1C[C@H](C(=O)N(C([2H])([2H])C([2H])([2H])[2H])C([2H])([2H])C([2H])([2H])[2H])C=C2c3cccc4[nH]c(Br)c(c34)C[C@H]21 | 35.7 min | 38.8 µL/min/mg
[2H]c1c([2H])c2c3c(c(Br)[nH]c3c1[2H])C[C@@H]1C2=C[C@@H](C(=O)N(CC)CC)CN1C | 26.3 min | 52.6 µL/min/mg
